Results reported in patent publication US5834288A, “KDN-specific deminoneuraminidase from Sphingobacterium multivorum” (Seikagaku Corporation, priority 1994, dated 1998).
“Also recorded” adds a separate entry of the source. Read-outs that look alike come from different tables or passages of the source.

How the values were obtained:
[1] = system: enzyme of the present invention (KDNase); assay: Inhibition and activation of the enzyme, 4-MU-KDN method; format: biochemical, Sphingobacterium mOL12-4s; settings: for effect on the activity of the enzyme: added at 1 mM
Protocol: Specifically, 1.4 nmol of 4-MU-KDN was added to an enzyme solution prepared by dissolving the enzyme in 20 μl of 0.1M Tris-acetate buffer (pH 6.0)/0.1M NaCl to perform a reaction at 25° C. for 30 minutes. After the reaction, an aliquot of the reaction solution (20 μl) was mixed with 2.5 ml of 85 mM glycine-carbonate buffer (pH 9.3) to measure the fluorescent strength (exciting wavelength: 365 nm, measuring wavelength: 450 nm). For the measurement of the fluorescent strength, reference was made to Biochemistry, Vol. 18, No. 13, pp. 2783-2787. A fluorescent strength, which was obtained when the reaction was performed in the same manner as described above except that the enzyme was not added, was used as control. An amount of the enzyme, which hydrolyzed 1 nmol of 4-MU-KDN per 1 minute at 25° C., was defined as 1 unit.
In order to investigate influences of, for example, inorganic ions and EDTA (ethylenediaminetetraacetic acid) on the activity of the enzyme of the present invention, these compounds were added to the reaction solution to perform the enzyme reaction in accordance with the 4-MU-KDN method.
The influence of the ionic strength on the enzyme of the present invention was investigated.
2,3-Dehydro-2-deoxy-N-acetylneuraminic acid is a specific inhibitor for known sialidase which cleaves the ketosidic linkage formed by N-acylneuraminic acid.

[2] = system: enzyme of the present invention (KDNase); assay: Substrate specificity: cleavage of ketosidic linkage, detected by thin layer chromatography; format: biochemical, Sphingobacterium mOL12-4s; design: key to Presence or absence of cleavage: Those in which KDN, Neu5Ac, or Neu5Gc was liberated are indicated by "+"; those in which KDN, Neu5Ac, or Neu5Gc was not liberated at all are indicated by "-"; settings: for Presence or absence of cleavage: substrate corresponding to 5 μg KDN, Neu5Ac or Neu5Gc, enzyme 80 milliunits, 25° C., 20 hours, pH 6.0, 0.1M NaCl
Protocol: The reactivity of the enzyme of the present invention was investigated for various KDN-containing complex carbohydrates and carbohydrates and sialic acid-containing complex carbohydrates and carbohydrates.
Each of the foregoing complex carbohydrates or carbohydrates containing KDN or sialic acid, which corresponded to 5 μg of KDN or N-acetylneuraminicacid (Neu5Ac) or N-glycolylneuraminic acid (Neu5Gc), was allowed to coexist with the enzyme of the present invention (80 milliunits) at 25° C. for 20 hours in 10 μl of 0.1M Tris-acetate buffer (pH 6.0) containing 0.1M NaCl.
The reaction solution was spotted on a plate for silica gel thin layer chromatography (produced by Merck), and developed for 7 hours with 1-propanol: 25% aqueous ammonia: water=6:1:2.5 (volume ratio). After the development, the plate was dried, on which 10% sulfuric acid ethanol solution was sprayed. The plate was heated at 120° C. to cause color development for the complex carbohydrates or carbohydrates and liberated KDN, Neu5Ac, or Neu5Gc. A control was provided, in which the reaction was performed without addition of the enzyme. Those in which KDN, Neu5Ac, or Neu5Gc was liberated are indicated by "+", and those in which KDN, Neu5Ac, or Neu5Gc was not liberated at all are indicated by "-".

[3] = system: enzyme of the present invention (KDNase); assay: Measurement of Michaelis constant and Vmax with 4-MU-KDN as substrate; format: biochemical, Sphingobacterium mOL12-4s; settings: 25° C.; for Vmax: pH 6.0
Protocol: The Michaelis constant (Km) and the maximum enzyme reaction velocity (Vmax) were determined on condition that 4-methylumbelliferyl KDN (4-MU-KDN) was used as a substrate for the enzyme of the present invention. The enzyme (32 milliunits) and the substrate (4-MU-KDN, 6.7 μM) were reacted at 25° C. in 216 μl of a reaction solution (0.1M Tris-acetate buffer (pH 6.0)/0.1M NaCl containing 0.1 mg/ml of bovine serum albumin). As a result, 4-methylumbelliferone (4-MU) was liberated linearly within 1 hour.
At this enzyme concentration, initial reaction velocities were measured by performing the reaction at 25° C. for 30 minutes in the same reaction solution as described above while variously changing the concentration of 4-MU-KDN in a range of 21 to 167 μM. A Lineweaver-Burkplot was obtained, and thus the Michaelis constant was calculated.

[4] = system: Sphingobacterium mOL12-4s; assay: Induction of KDNase in Sphingobacterium mOL12-4s; settings: for Number of cells: 0.1% (w/v) added substance in M9 liquid medium, 6.1×10^10 cells inoculated; for Number of cells / KDNase activity per cells / Number of cells, ratio to before addition (value in []) / KDNase activity: 25° C., 24 hours; for Number of cells, ratio to before addition (value in []): before addition = 1; for KDNase activity: supernatant of disrupted cells; for fold induction at 1000 µg/mL: 24 h
Protocol: Bacterial cells (4.0×10^8) of Sphingobacterium mOL12-4s were inoculated into 40 ml of M9 liquid medium containing 1% (w/v) casein hydrolysate (casamino acid, produced by Gibco) and 1% (w/v) glucose (Glc), and cultivated at 25° C. for 44 hours. Microbial cells (bacterial cells) at the growth phase were collected, and washed twice with M9 liquid medium. The microbial cells (6.1×10^10 cells) were inoculated into 2.0 ml of M9 liquid medium containing 0.1% (w/v) crude KDN-OS, KDN-OS, KDN, Neu5Ac, acid hydrolysate of colominic acid (oligo-Neu5Ac; Kitazume, S. et al., Anal. Biochem., 202, 25-34 (1992)), or Glc, and incubated at 25° C. for 24 hours to measure the number of growable cells and the KDNase activity. The number of cells was determined by diluting each incubated cell cultivation liquid to inoculate an obtained diluted solution into an LB agar medium plate, and counting a number of grown colonies (Kitajima, K. et al., J. Biol. Chem., 269, 21415-21419). In order to measure the KDNase activity of the cells, the cells were collected by means of centrifugation at 5,000 rpm or 1,500× g for 10 minutes. The collected cells were suspended in 0.5 ml of 100 mM Tris-acetate buffer (pH 6.0) containing 100 mM NaCl, and disrupted by means of ultrasonication (50 watts, 1 minute). The disrupted preparation was centrifuged at 10,000 rpm or 6,000× g for 10 minutes to subsequently obtain a supernatant for which the KDNase activity was measured. The numerical value in [] in Table 1 indicates a ratio provided that the activity before the addition is regarded as 1.

[5] = read-out: KDNase activity per cells, ratio to before addition (value in [])
[6] = read-out: KDNase activity, ratio to before addition (value in [])

In the case of `CC(=O)N[C@H]1[C@H]([C@H](O)[C@H](O)CO)OC(C(=O)O)=C[C@@H]1O` [2,3-dehydro-2-deoxy-N-acetylneuraminic acid], the “inhibition of the enzyme” value ([1]; concentration not given) was “not inhibited”.
In the case of `Cc1cc(=O)oc2cc(OC3(C(=O)O)C[C@H](O)[C@@H](O)[C@H]([C@H](O)[C@H](O)CO)O3)ccc12` (stereo partly drawn) [4-MU-KDN, 4-methylumbelliferyl KDN], the “action of the enzyme on the ketosidic linkage (in words)” value [2] was “acts on”, the “action of the enzyme on the ketosidic linkage (in words)” value ([2]; listed as 4-methylumbelliferyl KDN) was “can also act on” and the “Presence or absence of cleavage” value [2] was “+”. It also gave a Vmax [3] of 7.4 mM/min/mg protein, a Km ([3]; pH 6.0, 0.1M NaCl, 0.1 mg/ml BSA, Lineweaver-Burk plot, 21 to 167 μM substrate) of 19 µM and a Vmax ([3]; enzyme 32 milliunits in 216 μl) of 0.19 µM/min.
With `CC(=O)NC1C(O)CC(Oc2ccc3c(C)cc(=O)oc3c2)(C(=O)O)OC1C(O)C(O)CO` (stereo not drawn) [4-MU-Neu5Ac, 4-Methylumbelliferyl Neu5Ac] the “Presence or absence of cleavage” value [2] was “-”.
For `O=C(O)CN(CCN(CC(=O)O)CC(=O)O)CC(=O)O` [EDTA, ethylenediaminetetraacetic acid], the “effect on the activity of the enzyme” value [1] was “not affected”.
`O=C[C@H](O)[C@@H](O)[C@H](O)[C@H](O)CO` [Glc, glucose] was tested, and the Number of cells [4] was 1.7 × 10^12, the “KDNase activity per cells” value ([4]; 0.1% (w/v)) was 0.47 milliunit/10^10 cells and the “Number of cells, ratio to before addition (value in [])” value (“Number of cells, ratio” for short) ([4]; 0.1% (w/v)) was 28. It also gave a KDNase activity ([4]; 0.1% (w/v)) of 80 milliunit, a fold induction at 1000 µg/mL [4, 5] of 0.14 and a fold induction at 1000 µg/mL [4, 6] of 4.
`O=C(O)C1(O)CC(O)C(O)C(C(O)C(CO)OC2(C(=O)O)CC(O)C(O)C(C(O)C(O)CO)O2)O1` (stereo not drawn) [KDN dimer, KDNα2→8KDN] was tested, and the “Presence or absence of cleavage” value [2] was “+”.
For `O=C(O)C1(O)C[C@H](O)[C@@H](O)[C@H]([C@H](O)[C@H](O)CO)O1` (stereo partly drawn) [KDN, 3-deoxy-D-glycero-D-galacto-nonulosonic acid], the “induction of KDNase (in words)” value ([4]; 0.1% (w/v)) was “induced KDNase”, the Number of cells [4] was 3.6 × 10^10 and the “KDNase activity per cells” value ([4]; 0.1% (w/v)) was 11 milliunit/10^10 cells. For the same compound, the “Number of cells, ratio” value ([4]; 0.1% (w/v)) was 0.59, the KDNase activity ([4]; 0.1% (w/v)) was 38 milliunit and the fold induction at 1000 µg/mL [4, 5] was 3.3. For the same compound, the fold induction at 1000 µg/mL [4, 6] was 1.9, the “inhibition of the enzyme” value ([1]; 3 mM) was “inhibited” and the “inhibition of the enzyme” value ([1]; concentration not given) was “inhibited”.
With `[Cl-].[Na+]` [NaCl] the “enzyme activity at low ionic strength” value ([1]; 50 mM or less) was “extremely low” and the “concentration giving maximum enzyme activity (ionic strength)” value ([1]; FIG. 10) was 300 mM.
For `CC(=O)NC1C(O)CC(OC(CO)C(O)C2OC(O)(C(=O)O)CC(O)C2NC(C)=O)(C(=O)O)OC1C(O)C(O)CO` (stereo not drawn) [Neu5Ac dimer, N-acetylneuraminic acid (Neu5Ac) dimer], the “Presence or absence of cleavage” value [2] was “-”.
With `CC(=O)N[C@H]1[C@H]([C@H](O)[C@H](O)CO)OC(O)(C(=O)O)C[C@@H]1O` (stereo partly drawn) [Neu5Ac, N-acetylneuraminic acid] the Number of cells [4] was 2.5 × 10^10, the “KDNase activity per cells” value ([4]; 0.1% (w/v)) was 6.0 milliunit/10^10 cells and the “Number of cells, ratio” value ([4]; 0.1% (w/v)) was 0.41. For the same compound, the KDNase activity ([4]; 0.1% (w/v)) was 15 milliunit, the fold induction at 1000 µg/mL [4, 5] was 1.8 and the fold induction at 1000 µg/mL [4, 6] was 0.75.
In the case of `CC(=O)NC(CO)C(OC1OC(CO)C(O)C(O)C1O)C(O)C(O)COC1(C(=O)O)CC(O)C(NC(C)=O)C(C(O)C(O)CO)O1` (stereo not drawn) [Neu5Acα2→6(Galβ1→3)GalNAcol], the “Presence or absence of cleavage” value [2] was “-”.
In the case of `O=C(CO)NC1C(O)CC(OC(CO)C(O)C2OC(O)(C(=O)O)CC(O)C2NC(=O)CO)(C(=O)O)OC1C(O)C(O)CO` (stereo not drawn) [Neu5Gc dimer, N-glycolylneuraminic acid (Neu5Gc) dimer], the “Presence or absence of cleavage” value [2] was “-”.
`[Ca+2]` [calcium ion] was tested, and the “effect on the activity of the enzyme” value [1] was “not affected”.
In the case of `CC(=O)N[C@H]1[C@H]([C@H](O)[C@H](O)CO)OC(O)(C(=O)O)C[C@@H]1O` (stereo partly drawn) [free sialic acid, sialic acid], the “inhibition of the enzyme” value ([1]; concentration not given) was “not inhibited”.
`[Mg+2]` [magnesium ion] was tested, and the “effect on the activity of the enzyme” value [1] was “not affected”.
`[Mn+2]` [manganese ion] was tested, and the “effect on the activity of the enzyme” value [1] was “not affected”.
In the case of `C[C@H](CCC(=O)O)[C@H]1CC[C@H]2[C@@H]3[C@H](O)C[C@@H]4C[C@H](O)CC[C@]4(C)[C@H]3C[C@H](O)[C@]12C` [sodium cholate], the enzyme activity maintained ([1]; 0.1%, 30 min) was “about 90%” and the “enzyme activity in the presence of the additive” value ([1]; 0.5%) was “substantially disappeared; also recorded: disappears”.
For “KDNα2→3Galβ1→4Glcβ1→Cer [KDN-containing ganglioside GM3]”, the “Presence or absence of cleavage” value [2] was “+”.
With “N-Acetylneuraminic acid lactose [Neu5Ac lactose]” the “Presence or absence of cleavage” value [2] was “-”.
For Triton X-100, the “inhibition of the enzyme” value ([1]; concentration not given) was “not inhibited; also recorded: does not inhibit”.
In the case of colominic acid, the “Presence or absence of cleavage” value [2] was “-”.
For “fetal bovine serum fetuin: fetal bovine serum fetuin purchased from Sigma”, the “Presence or absence of cleavage” value [2] was “-”.
“human transferrin: human transferrin purchased from Sigma” was tested, and the “Presence or absence of cleavage” value [2] was “-”.
